Here are results for 3 compounds from PMC6271077, “Synthesis, Anticancer and Antibacterial Activity of Salinomycin N-Benzyl Amides” (Molecules, 2014).

Values after ≈ are worked out from the molar mass of the structure shown. Read-outs that look alike come from different tables or passages of the source.

One assay relates to HL-60. Kind of assay: Antiproliferative MTT assay, HL-60. It counts as cell-based, human. The note with it: for IC50: Homo sapiens, read-out: IC50 HL-60; for SI HL-60: SI = IC50 BALB/3T3 / IC50 HL-60. The method, boiled down:
(§1)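 Leukemia cells seeded at 10^4 per well and exposed 24 h later to four concentrations (100–0.1 µg/mL) for 72 h; HL-60/vinc cultured with doxorubicin. MTT added 4 h, formazan lysed 24 h, absorbance 570 nm; IC50 from triplicates, ≥3 independent experiments.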
Background: Tetrazolium assays rely on reduction of a dye to a coloured formazan, in cell work by metabolically active cells.

The test system of the next assay is HL-60/vinc. Kind of assay: Antiproliferative MTT assay, HL-60/vinc. It counts as cell-based, human. Particulars: for IC50: Homo sapiens, HL60/vinc, 72 h, read-out: IC50 HL-60/vinc; for IR HL-60/vinc: IR = IC50 HL-60/vinc / IC50 HL-60; for SI HL-60/vinc: SI = IC50 BALB/3T3 / IC50 HL-60/vinc. Put shortly: as §1
The next assay has as its system S. aureus ATCC 4163. Put plainly: MIC microdilution. The note with it: Staphylococcus aureus. The class given is cell-based. For orientation: Dilution methods test growth across graded concentrations, often in twofold steps.
In another assay the test system is MRSA 537/12. Put plainly: MIC microdilution, hospital MRSA. The class given is cell-based. The note with it: Staphylococcus aureus.
The next assay deals with MRSA 572/12. Put plainly: MIC microdilution, hospital MRSA. The note with it: Staphylococcus aureus. It counts as cell-based.
Another assay concerns MRSA 586/12. Put plainly: MIC microdilution, hospital MRSA. The class given is cell-based. The note with it: Staphylococcus aureus.
Another assay deals with MRSE 467/11. Kind of assay: MIC microdilution, hospital MRSE. The class given is cell-based. Particulars: Staphylococcus epidermidis.
Another assay deals with MRSE 469/11. Put plainly: MIC microdilution, hospital MRSE. It counts as cell-based. Particulars: Staphylococcus epidermidis.
For another assay, the system named is MRSA. Put plainly: MIC microdilution, MRSA strains overall (range given). The class given is cell-based, Staphylococcus aureus. Particulars: hospital MRSA strains.
Assay [1] deals with standard strains of Gram-positive bacteria. Kind of assay: MIC microdilution, standard Gram-positive strains overall (range given). It counts as cell-based. The note with it: standard S. aureus and S. epidermidis strains.
Another assay relates to MRSA and MRSE. Put plainly: MIC microdilution, MRSA and MRSE overall (range given). The class given is cell-based. The note with it: hospital MRSA and MRSE strains.
In assay [2] the test system is HL-60, HL-60/vinc, LoVo, LoVo/dx. Kind of assay: Antiproliferative assays, all four cancer cell lines (range given). The note with it: Homo sapiens, read-out: IC50 (range over the cancer cell lines). The class given is cell-based. An excerpt: Four human cancer cell lines and one normal cell line were used to evaluate anticancer activity of SAL and its N-benzyl amides: human acute promyelocytic leukemia (HL-60) and its vincristine resistant subline (HL-60/vinc), human colon adenocarcinoma cell lines sensitive (LoVo) and resistant to doxorubicin (LoVo/dx) as well as also normal murine embryonic fibroblast cell line (BALB/3T3). The BALB/3T3 cell line was purchased from the American Type Culture Collection (ATCC Rockville, MD, USA), HL-60 cell line from European Type Culture Collection by courtesy of Professor Spik and Dr Mazurier (Laboratory of Biological Chemistry USTL, Lille, France) and HL-60/vinc, LoVo and LoVo/dx by courtesy of Prof. E. Borowski (Technical University of Gdańsk, Gdańsk, Poland). All the cell lines are maintained in the Institute of Immunology and Experimental Therapy (IIET), Wrocław, Poland.
Human leukemia cells were cultured in ISCOVE medium (IIET, Wroclaw, Polond) containing 10% fetal bovine serum and 2 mM L-glutamine (Sigma Aldrich) and 1 µg/100 mL […] for HL-60/vinc (Sigma Aldrich). Human colon adenocarcinoma cell lines were cultured in mixture of OptiMEM and RPMI 1640 (1:1) medium (IIET) supplemented with 5% fetal bovine serum (Thermo Fisher Scientific, Waltham, MA, USA), 2 mM L-glutamine, 1 mM sodium pyruvate (Sigma Aldrich) and 10 µg/100 mL doxorubicin for LoVo/dx (Sigma Aldrich). Murine embryonic fibroblast cells were cultured in Dulbecco medium (Gibco, Darmstadt, Germany) supplemented with 10% fetal bovine serum (Thermo Fisher Scientific) and 2 mM L-glutamine (Sigma Aldrich). All culture media contained antibiotics: 100 U/mL penicillin (Sigma Aldrich) and 100 µg/mL streptomycin (Polfa-Tarchomin, City, Poland). All cell lines were cultured during entire experiment in humid atmosphere at 37 °C and 5% CO2.
Twenty four hours before adding the tested compounds all cell lines were seeded in 96-well plates (Sarstedt, Nümbrecht, Germany) in appropriate media with 10^4 cells per well. All cell lines were exposed to each tested agent at four different concentrations from the range 100 to 0.1 µg/mL for 72 h. The cells were also exposed to the reference drugs: cisplatin (Accord, London, UK) and doxorubicin hydrochloride (Fluka, St. Louis, MO, USA). Additionally, all cell lines were exposed to DMSO (the solvent used for tested compounds, Sigma Aldrich) at the concentrations corresponding to those in the tested agent dilutions. For adherent cells sulphorodamine B assay was performed and MTT assay for leukemia cells.
After 72 h of incubation with tested compounds the cells were fixed in situ by gently adding of 50 µL per well of cold 50% trichloroacetic acid TCA (Avantor Performance Materials, City, Poland) and were incubated at 4 °C for 1 h. Then the wells were washed four times with water and air-dried. Next, 50 µL of 0.2% solution of sulphorodamine B (Sigma Aldrich) in 1% acetic acid (Avantor Performance Materials) were added to each well and plates were incubated at room temperature for 0.5 h. After incubation time, unbound dye was removed by washing plates four times with 1% acetic acid, whereas the stain bound to cells was solubilized with 150 µL of 10 mM Tris base (Sigma Aldrich). Absorbance of each solution was read at Synergy H4 photometer (BioTek Instruments, Winooski, VT, USA) at 540 nm wavelength.
Proliferation inhibition of leukemia cells by tested compounds was measured by means of MTT assay. […]

The subject of assay [3] is breast cancer stem cells (CSCs). The arrangement: method as in PMID 19682730. The note with it: versus Taxol; cited from earlier work.
Where [4] appears, read: ATCC4163, S. aureus ATCC 4163, 18 h, 35 °C, read-out: MIC.
[5] abbreviates: hospital MRSA strain 537/12, read-out: MIC.
[6] abbreviates: hospital MRSA strain 572/12, read-out: MIC.
Where [7] appears, read: hospital MRSA strain 586/12, read-out: MIC.
The mark [8] stands for this setting: hospital MRSE strain 467/11, read-out: MIC.
[9] abbreviates: hospital MRSE strain 469/11, read-out: MIC.

As usually defined, the MIC is the smallest concentration in the dilution series that meets the test's criterion for growth inhibition. With `CC[C@H](C(=O)NCc1ccc(F)cc1)C1CC[C@H](C)C([C@@H](C)[C@H](O)[C@H](C)C(=O)[C@H](CC)C2O[C@]3(C=C[C@@H](O)C4(CC[C@@](C)(C5CC[C@](O)(CC)[C@H](C)O5)O4)O3)[C@H](C)C[C@@H]2C)O1` (some centres unmarked) [F-p], the IC50 in the assay on HL-60 (HL-60, 72 h, MTT, mean ± SD, NA: not active in concentrations used (up to 100 µg/mL)) is 3600 ± 690 nM; with HL-60/vinc, 11800 ± 2560 nM. Further, the “SI HL-60” value in the assay with HL-60 was determined as 2.40. In addition, the “IR HL-60/vinc” value with HL-60/vinc was 3.28. Moreover, the “SI HL-60/vinc” value in the assay on HL-60/vinc was 0.73. For the same compound, the MIC in the assay on S. aureus ATCC 4163 (setting [4]) stood at 32 µg/mL (≈ 37.3 µM); in the assay on MRSA 537/12 (setting [5]), 32 µg/mL (≈ 37.3 µM); in the assay with MRSA 572/12 (setting [6]) it was 32 µg/mL (≈ 37.3 µM); with MRSA 586/12 (setting [7]) it was 64 µg/mL (≈ 74.6 µM); in the assay on MRSE 467/11 (setting [8]), 64 µg/mL (≈ 74.6 µM); in the assay with MRSE 469/11 (setting [9]), 64 µg/mL (≈ 74.6 µM). Besides, the “MIC (range over MRSA strains)” value against MRSA fell in the range of 16 to 64 µg/mL. In assay [1], the “MIC (range over standard strains of Gram-positive bacteria)” value was in the range of 16 to 32 µg/mL. In the assay on MRSA and MRSE, the “MIC (range over MRSA and MRSE)” value fell in the range of 16 to 128 µg/mL.
For the compound `CC[C@H](C(=O)NCc1ccc([N+](=O)[O-])cc1)C1CC[C@H](C)C([C@@H](C)[C@H](O)[C@H](C)C(=O)[C@H](CC)C2O[C@]3(C=C[C@@H](O)C4(CC[C@@](C)(C5CC[C@](O)(CC)[C@H](C)O5)O4)O3)[C@H](C)C[C@@H]2C)O1` (some centres unmarked) [NO2-p], the MIC with S. aureus ATCC 4163 (setting [4]) is 128 µg/mL (≈ 145 µM); in the assay with MRSA 537/12 (setting [5]), 256 µg/mL (≈ 289 µM); in the assay with MRSA 572/12 (setting [6]), 128 µg/mL (≈ 145 µM); with MRSA 586/12 (setting [7]) it was 256 µg/mL (≈ 289 µM); in the assay on MRSE 467/11 (setting [8]), 128 µg/mL (≈ 145 µM); in the assay with MRSE 469/11 (setting [9]) it was 256 µg/mL (≈ 289 µM). In addition, in [1], the “MIC (range over standard strains of Gram-positive bacteria)” value was 128 µg/mL. Also, the “MIC (range over MRSA and MRSE)” value against MRSA and MRSE was in the range of 128 to 256 µg/mL.
For `CC[C@@H](C(=O)[C@@H](C)[C@@H](O)[C@H](C)[C@@H]1O[C@@H]([C@@H](CC)C(=O)O)CC[C@@H]1C)[C@H]1O[C@]2(C=C[C@@H](O)[C@]3(CC[C@@](C)([C@H]4CC[C@](O)(CC)[C@H](C)O4)O3)O2)[C@H](C)C[C@@H]1C` [SAL, Salinomycin], the IC50 in the assay with HL-60 (HL-60, 72 h) was 330 ± 120 nM; in the assay with HL-60/vinc, 2330 ± 120 nM; in assay [2], 330 to 2330 nM. The “SI HL-60” value in the assay on HL-60 was found to be 39.45. Further, the “IR HL-60/vinc” value in the assay on HL-60/vinc is 7.06. The “SI HL-60/vinc” value in the assay on HL-60/vinc is recorded as 5.59. Further, the MIC against S. aureus ATCC 4163 (ATCC4163, 18 h) turned out to be 2 µg/mL (≈ 2.66 µM); with MRSA 537/12 (MRSA) it was 16 µg/mL (≈ 21.3 µM); against MRSA 572/12 (MRSA), 16 µg/mL (≈ 21.3 µM); in the assay with MRSA 586/12 (MRSA), 16 µg/mL (≈ 21.3 µM); with MRSE 467/11 (MRSE), 16 µg/mL (≈ 21.3 µM); against MRSE 469/11 (MRSE) it was 16 µg/mL (≈ 21.3 µM). In assay [3], the “fold more effective than Taxol” value was about 100 fold.
